Here are results for 7 compounds from patent US6759544B2, “Antimicrobially active acesulfame complexes, process for their preparation and their use” (Nutrinova Nutrition Specialties & Food Ingredients GmbH, priority 2001, dated 2004).

As a reminder, the MIC is the lowest concentration that inhibits growth of the organism. A lower MIC goes with a more susceptible organism.

Common to all, as to assay type: cell-based
The subject of experiment [1] is Streptococcus mutans (ATCC 25175). Kind of experiment: Minimum inhibitory concentration, Streptococcus mutans. The procedure: (§1) Method for Determining the Minimum Inhibitory Concentration
(§2) The samples, to determine the minimum inhibitory concentration, are dissolved in WSH (water of standardized hardness) and mixed with twice-concentrated Caso-Bouillon pH 5.5. After inoculation with the test organisms, the solutions of the test organisms Streptococcus mutans (ATCC 25175) and Actinomyces odontolyticus (ATCC 17982) were overlayered with paraffin and incubated for a period of three days at a temperature of 37° C.
(§3) The solution of the test organism Staphylococcus aureus (ATCC 6538) was incubated for two days at 37° C. The samples were then streaked onto Caso agar and incubated for two days at 37° C.

The subject of experiment [2] is Actinomyces odontolyticus (ATCC 17982). The experiment is described as follows: Minimum inhibitory concentration, Actinomyces odontolyticus. The procedure:
as §1, §2, §3

The test system of experiment [3] is Staphylococcus aureus (ATCC 6538). Kind of experiment: Minimum inhibitory concentration, Staphylococcus aureus. The procedure: as §1, §2, §3
The mark [4] stands for this setting: Streptococcus mutans (ATCC 25175), Caso-Bouillon pH 5.5, overlayered with paraffin, three days at 37° C.
Setting [5] is: Actinomyces odontolyticus (ATCC 17982), Caso-Bouillon pH 5.5, overlayered with paraffin, three days at 37° C.
The mark [6] stands for this setting: Staphylococcus aureus (ATCC 6538), Caso-Bouillon pH 5.5, two days at 37° C.

For `CC1=CC(=O)[N-]S(=O)(=O)O1.CCCCCCCCCCCCCCCC[n+]1ccccc1` [Cetylpyridinium(acesulfame), Acesulfame-Cetylpyridinium Complex], the values for the Minimum inhibitory concentration in experiment [1] (pH 5.5), in experiment [2] (pH 5.5) and in experiment [3] (pH 5.5) were 0.00214 mM, 0.00214 mM and 0.10703 mM, respectively.

As to `O.O.O.O.O.O.O.O=S(=O)([O-])[O-].[Zn+2]` [ZnSO4.7H2O, zinc(II) sulfate heptahydrate], the Minimum inhibitory concentration in experiment [1] (pH 5.5), in experiment [2] (pH 5.5) and in experiment [3] (pH 5.5) was 17.5 mM throughout.

Consider `CC1=CC(=O)[N-]S(=O)(=O)O1.[Ag+]` [Ag(acesulfame).0.25H2O, Acesulfame-Silver Complex], for which the Minimum inhibitory concentration amounted to 18.31 mM in experiment [1] (setting [4]), 18.31 mM in experiment [2] (setting [5]) and 3.65 mM in experiment [3] (setting [6]).

In the case of `O=[N+]([O-])[O-].[Ag+]` [AgNO3, silver(I) nitrate], the Minimum inhibitory concentration in experiment [1] (setting [4]), in experiment [2] (setting [5]) and in experiment [3] (setting [6]) was 5.91 mM throughout.

With `O.O.O.O.O.O=S(=O)([O-])[O-].[Cu+2]` [CuSO4.5H2O, copper(II) sulfate pentahydrate], the results for the Minimum inhibitory concentration in experiment [1] (pH 5.5), in experiment [2] (pH 5.5) and in experiment [3] (pH 5.5) were 4.01 mM, 20.13 mM and 20.13 mM, respectively.

For the compound `CCCCCCCCCCCCCCCC[n+]1ccccc1.O.[Cl-]` [Cetylpridinium chloride.H2O, cetylpyridinium chloride.H2O], the Minimum inhibitory concentration is 0.00279 mM in experiment [1] (pH 5.5), 0.00279 mM in experiment [2] (pH 5.5) and 0.13966 mM in experiment [3] (pH 5.5).

For the compound `CC1=CC(=O)[N]([Zn]([OH])([OH])[N]2C(=O)C=C(C)OS2(=O)=O)S(=O)(=O)O1` [Zn(acesulfame)2.2H2O, Acesulfame-Zinc Complex], the MIC in experiment [1] (ATCC25175, 72 h, Streptococcus mutans (ATCC 25175), Caso-Bouillon pH 5.5, overlayered with paraffin, three days at 37° C.) came out at 23.7 mM; in experiment [2] (Schaalia odontolytica, ATCC17982, 72 h, Actinomyces odontolyticus (ATCC 17982), Caso-Bouillon pH 5.5, overlayered with paraffin, three days at 37° C.), 11.8 mM; in experiment [3] (ATCC6538, 48 h, Staphylococcus aureus (ATCC 6538), Caso-Bouillon pH 5.5, two days at 37° C.), 23.7 mM.
